As a reminder, the IC50 is the concentration needed to halve the response being measured.

For 23 compounds, IC50 results are on record in patent publication US20220073525A1, “COMPOSITIONS FOR INHIBITING UBIQUITIN SPECIFIC PROTEASE 1” (FORMA Therapeutics, Inc., priority 2019, published 2022).

Chain of USP1 (O94782 whole entry): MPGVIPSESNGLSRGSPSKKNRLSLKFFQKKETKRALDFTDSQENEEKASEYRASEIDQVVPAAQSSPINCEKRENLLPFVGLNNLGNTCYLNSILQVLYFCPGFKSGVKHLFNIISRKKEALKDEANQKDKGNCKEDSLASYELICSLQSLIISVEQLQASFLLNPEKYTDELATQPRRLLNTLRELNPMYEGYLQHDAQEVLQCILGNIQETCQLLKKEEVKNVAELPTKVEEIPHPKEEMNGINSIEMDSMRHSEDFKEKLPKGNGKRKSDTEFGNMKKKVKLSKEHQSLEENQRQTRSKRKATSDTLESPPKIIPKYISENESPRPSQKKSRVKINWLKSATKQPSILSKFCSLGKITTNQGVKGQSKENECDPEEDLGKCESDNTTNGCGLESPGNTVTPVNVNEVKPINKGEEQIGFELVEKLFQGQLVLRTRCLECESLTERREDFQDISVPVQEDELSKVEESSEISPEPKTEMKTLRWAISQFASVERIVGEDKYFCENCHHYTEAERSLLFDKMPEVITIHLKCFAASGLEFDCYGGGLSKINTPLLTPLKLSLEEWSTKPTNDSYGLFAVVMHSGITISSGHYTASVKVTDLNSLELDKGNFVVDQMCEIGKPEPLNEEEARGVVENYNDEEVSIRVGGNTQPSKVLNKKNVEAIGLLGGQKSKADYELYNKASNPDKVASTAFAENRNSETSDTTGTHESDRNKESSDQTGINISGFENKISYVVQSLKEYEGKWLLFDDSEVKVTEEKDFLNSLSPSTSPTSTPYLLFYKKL
Chain of USP1 (Q8TAF3 whole entry partner): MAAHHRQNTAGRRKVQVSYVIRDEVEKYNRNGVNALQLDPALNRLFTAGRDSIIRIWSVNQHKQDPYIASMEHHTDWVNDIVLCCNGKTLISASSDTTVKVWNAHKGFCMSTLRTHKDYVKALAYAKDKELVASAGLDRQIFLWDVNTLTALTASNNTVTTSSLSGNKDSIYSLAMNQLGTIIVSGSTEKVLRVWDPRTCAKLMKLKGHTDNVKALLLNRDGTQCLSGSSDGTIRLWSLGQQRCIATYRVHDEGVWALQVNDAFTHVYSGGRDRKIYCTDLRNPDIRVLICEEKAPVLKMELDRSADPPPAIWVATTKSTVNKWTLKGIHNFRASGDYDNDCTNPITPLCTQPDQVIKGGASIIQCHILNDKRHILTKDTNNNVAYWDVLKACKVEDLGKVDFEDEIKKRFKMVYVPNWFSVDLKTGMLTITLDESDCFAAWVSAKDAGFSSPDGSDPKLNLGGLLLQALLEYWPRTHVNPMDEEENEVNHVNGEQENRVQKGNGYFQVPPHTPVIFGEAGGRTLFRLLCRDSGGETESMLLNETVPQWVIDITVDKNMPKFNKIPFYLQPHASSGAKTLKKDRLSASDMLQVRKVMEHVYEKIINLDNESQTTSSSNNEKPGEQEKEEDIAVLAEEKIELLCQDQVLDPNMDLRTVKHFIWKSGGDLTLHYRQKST

The assay concerns the target USP1 (Homo sapiens, UniProt O94782). Put plainly: Biochemical Assay for USP1 Inhibition (Ub-Rho 110 fluorescence). Conditions: Table 5; 30 min preincubation, Enzyme 0.025 nM, Substrate Ub-Rho 110 25 nM; read-out: IC50 (μm). The protocol:
The assay was performed in a final volume of 6 μL in assay buffer containing 20 mM Tris-HCl pH 8.0, (1 M Tris-HCl, pH 8.0 solution; Corning 46-031-CM), 1 mM GSH (L-glutathione reduced, Sigma-Aldrich, G4251-100G), 0.03% BGG (0.22 μM filtered, Sigma, G7516-25G), and 0.01% Triton X-100 (Sigma, T9284-10L). Nanoliter quantities of 10-point, 3-fold serial dilution in DMSO were pre-dispensed into 1536 assay plates (Corning, #3724BC) for a final test concentration of 25 μM to 1.3 nM, top to lowest dose, respectively. Concentration and incubation times were optimized for the maximal signal-to-background while maintaining initial velocity conditions at a fixed substrate concentration (<<Km). 3 μL of 2× Enzyme was added to assay plates (pre-stamped with compound), preincubated for 30 min, and then treated with 3 μL of 2× Substrate (Ub-Rho 110, UbiQ-126). Final concentrations of Enzyme and Substrate are 0.025 nM and 25 nM, respectively. Plates were read using a kinetic protocol continuously for 11 min on the Envision (Perkin Elmer) or PheraSTAR (BMG), excitation at 485 nm and emission at 535 nm or excitation at 520 nm and emission at 590 nm. For all assay formats, data were reported as percent inhibition compared with control wells based on the following equation: % inh=100*([…]), where FLU=measured Fluorescence, AveLow=average Fluorescence of no enzyme control (n=32), and AveHigh=average Fluorescence of DMSO control (n=32). IC50 values were determined by curve fitting of the standard 4 parameter logistic fitting algorithm included in the Activity Base software package: TDBS XE Designer Model205. Data is fitted using the Levenburg Marquardt algorithm.
In Table 5, absolute stereochemistry has not been determined for some Compounds. Accordingly, assignment ofany Compounds as the “R” or “S” stereoisomer is arbitrary, unless otherwise noted. In some cases, Compounds are labeled with “1st eluting isomer”, “2nd eluting isomer”, etc. based on the purification method used to separate the stereoisomers.
Take `Cc1nc(-c2cccnc2C(C)C)c2n1CCN(c1ccc(OCCN3CCOCC3)cc1)C2` [Compound 23, 4-[2-(4-{3-methyl-1-[2-(propan-2-yl)pyridin-3-yl]-5H,6H,7H,8H-imidazo[1,5-a]pyrazin-7-yl}phenoxy)ethyl]morpholine]: the IC50 was in the range of 10 to 25 µM.
Under `CC(C)c1ncccc1-c1nc(C2CC2)n2c1CN(c1ccc(-c3nc(C(F)(F)F)cn3C)cc1)CC2` [Compound 24, 3-(3-cyclopropyl-7-{4-[1-methyl-4-(trifluoromethyl)-1H-imidazol-2-yl]phenyl}-5H,6H,7H,8H-imidazo[1,5-a]pyrazin-1-yl)-2-(propan-2-yl)pyridine] stands not above 1 µM; under `Cc1nc(-c2cccnc2C(C)C)c2n1CCN(c1ccc(-c3nc(C(F)(F)F)cn3C3COC3)cc1)C2` [Compound 25, 3-(3-methyl-7-{4-[1-(oxetan-3-yl)-4-(trifluoromethyl)-1H-imidazol-2-yl]phenyl}-5H,6H,7H,8H-imidazo[1,5-a]pyrazin-1-yl)-2-(propan-2-yl)pyridine], not above 1 µM; under `CNC(=O)c1ccc(N2CCn3c(C)nc(-c4cccnc4C(C)C)c3C2)cc1` [Compound 26, N-methyl-4-{3-methyl-1-[2-(propan-2-yl)pyridin-3-yl]-5H,6H,7H,8H-imidazo[1,5-a]pyrazin-7-yl}benzamide], more than 25 µM.
Under `Cc1nc(-c2cccnc2C(C)C)c2n1CCN(c1ccc(-c3cncn3C)cc1)C2` [Compound 28, 3-{3-methyl-7-[4-(1-methyl-1H-imidazol-5-yl)phenyl]-5H,6H,7H,8H-imidazo[1,5-a]pyrazin-1-yl}-2-(propan-2-yl)pyridine] stands more than 25 µM.
To `Cc1nc(-c2cccnc2C(C)C)c2n1CCN(c1ccc(C3CCCNC3=O)cc1)C2` (centres unmarked) [Compound 29, 3-(4-{3-methyl-1-[2-(propan-2-yl)pyridin-3-yl]-5H,6H,7H,8H-imidazo[1,5-a]pyrazin-7-yl}phenyl)piperidin-2-one] belongs more than 25 µM; to `Cc1nc(-c2cccnc2C(C)C)c2n1CCN(c1ccc(N3CCOCC3)cc1)C2` [Compound 30, 4-(4-{3-methyl-1-[2-(propan-2-yl)pyridin-3-yl]-5H,6H,7H,8H-imidazo[1,5-a]pyrazin-7-yl}phenyl)morpholine], more than 25 µM; to `Cc1ccn(-c2ccc(N3CCn4c(C)nc(-c5cccnc5C(C)C)c4C3)cc2)n1` [Compound 31, 3-{3-methyl-7-[4-(3-methyl-1H-pyrazol-1-yl)phenyl]-5H,6H,7H,8H-imidazo[1,5-a]pyrazin-1-yl}-2-(propan-2-yl)pyridine], not above 1 µM.
In the case of `Cc1nc(-c2cccnc2C(C)C)c2n1CCN(c1ccc(C3=CCON3)cc1)C2` [Compound 32, 3-{7-[4-(2,5-dihydro-1,2-oxazol-3-yl)phenyl]-3-methyl-5H,6H,7H,8H-imidazo[1,5-a]pyrazin-1-yl}-2-(propan-2-yl)pyridine], the IC50 lay within 1 to 10 µM.
Under `Cc1nc(-c2cccnc2C(C)C)c2n1CCN(c1ccc(-n3ccnn3)cc1)C2` [Compound 33, 3-{3-methyl-7-[4-(1H-1,2,3-triazol-1-yl)phenyl]-5H,6H,7H,8H-imidazo[1,5-a]pyrazin-1-yl}-2-(propan-2-yl)pyridine] stands 10 to 25 µM; under `Cc1nc(-c2cccnc2C(C)C)c2n1CCN(c1ccc(C3CNC(=O)C3)cc1)C2` (centres unmarked) [Compound 34, 4-(4-{3-methyl-1-[2-(propan-2-yl)pyridin-3-yl]-5H,6H,7H,8H-imidazo[1,5-a]pyrazin-7-yl}phenyl)pyrrolidin-2-one], more than 25 µM; under `Cc1cc(N2CCn3c(C)nc(-c4cccnc4C(C)C)c3C2)ccc1N1CCCC1=O` [Compound 35, 1-(2-methyl-4-{3-methyl-1-[2-(propan-2-yl)pyridin-3-yl]-5H,6H,7H,8H-imidazo[1,5-a]pyrazin-7-yl}phenyl)pyrrolidin-2-one], more than 25 µM.
Under `Cc1nc(-c2cccnc2C(C)C)c2n1CCN(c1ccc(N3CCC(O)C3)cc1)C2` (centres unmarked) [Compound 36, 1-(4-{3-methyl-1-[2-(propan-2-yl)pyridin-3-yl]-5H,6H,7H,8H-imidazo[1,5-a]pyrazin-7-yl}phenyl)pyrrolidin-3-ol] stands 10 to 25 µM.
Take `Cc1nc(-c2cccnc2C(C)C)c2n1CCN(c1ccc(C3COC(=O)N3)cc1)C2` (centres unmarked) [Compound 37, 4-(4-{3-methyl-1-[2-(propan-2-yl)pyridin-3-yl]-5H,6H,7H,8H-imidazo[1,5-a]pyrazin-7-yl}phenyl)-1,3-oxazolidin-2-one]: the half-maximal inhibitory concentration (IC50) was more than 25 µM.
Under `Cc1nc(-c2cccnc2C(C)C)c2n1CCN(c1ccc(N3CCCCC3=O)cc1)C2` [Compound 38, 1-(4-{3-methyl-1-[2-(propan-2-yl)pyridin-3-yl]-5H,6H,7H,8H-imidazo[1,5-a]pyrazin-7-yl}phenyl)piperidin-2-one] stands more than 25 µM; under `Cc1nnnn1-c1ccc(N2CCn3c(C)nc(-c4cccnc4C(C)C)c3C2)cc1` [Compound 39, 3-{3-methyl-7-[4-(5-methyl-1H-1,2,3,4-tetrazol-1-yl)phenyl]-5H,6H,7H,8H-imidazo[1,5-a]pyrazin-1-yl}-2-(propan-2-yl)pyridine], more than 25 µM; under `Cc1nc(-c2cccnc2C(C)C)c2n1CCN(c1ccc(-c3nnn(C)n3)cc1)C2` [Compound 40, 3-{3-methyl-7-[4-(2-methyl-2H-1,2,3,4-tetrazol-5-yl)phenyl]-5H,6H,7H,8H-imidazo[1,5-a]pyrazin-1-yl}-2-(propan-2-yl)pyridine], 1 to 10 µM.
Under `Cc1nc(-c2cccnc2C(C)C)c2n1CCN(c1ccc(-c3ncccn3)cc1)C2` [Compound 41, 2-(4-{3-methyl-1-[2-(propan-2-yl)pyridin-3-yl]-5H,6H,7H,8H-imidazo[1,5-a]pyrazin-7-yl}phenyl)pyrimidine] stands 1 to 10 µM; under `Cc1nc(-c2cccnc2C(C)C)c2n1CCN(c1ccc(-n3cnnc3)cc1)C2` [Compound 42, 3-{3-methyl-7-[4-(4H-1,2,4-triazol-4-yl)phenyl]-5H,6H,7H,8H-imidazo[1,5-a]pyrazin-1-yl}-2-(propan-2-yl)pyridine], more than 25 µM.
Under `Cc1nc(-c2cccnc2C(C)C)c2n1CCN(c1ccc(N3CCCC3=O)cc1)C2` [Compound 43, 1-(4-{3-methyl-1-[2-(propan-2-yl)pyridin-3-yl]-5H,6H,7H,8H-imidazo[1,5-a]pyrazin-7-yl}phenyl)pyrrolidin-2-one] stands 1 to 10 µM; under `Cc1nnc(-c2ccc(N3CCn4c(C)nc(-c5cccnc5C(C)C)c4C3)cc2)o1` [Compound 44, 3-{3-methyl-7-[4-(5-methyl-1,3,4-oxadiazol-2-yl)phenyl]-5H,6H,7H,8H-imidazo[1,5-a]pyrazin-1-yl}-2-(propan-2-yl)pyridine], 1 to 10 µM.
With `Cc1nc(-c2ccc(N3CCn4c(C)nc(-c5cccnc5C(C)C)c4C3)cc2)cn1C` [Compound 45, 3-{7-[4-(1,2-dimethyl-1H-imidazol-4-yl)phenyl]-3-methyl-5H,6H,7H,8H-imidazo[1,5-a]pyrazin-1-yl}-2-(propan-2-yl)pyridine], the IC50 was not above 1 µM.
Under `Cc1nc(-c2cccnc2C(C)C)c2n1CCN(c1ccc(C3(O)COC3)cc1)C2` [Compound 46, 3-(4-{3-methyl-1-[2-(propan-2-yl)pyridin-3-yl]-5H,6H,7H,8H-imidazo[1,5-a]pyrazin-7-yl}phenyl)oxetan-3-ol] stands more than 25 µM.
